Data on 62 compounds can be found in ChEMBL document CHEMBL6121065, “Targeting the "Undruggable": Small-Molecule Inhibitors of Proliferating Cell Nuclear Antigen (PCNA) in the Spotlight in Cancer Therapy” (J Med Chem, 2025).

Bounds are passed on as bounds.

Experiment [1] is described as follows: Antiproliferative activity against human SK-N-BE(2)-C cells. Type of experiment: functional, cell-based.
For experiment [2], the system named is SK-N-DZ. The experiment in a line: Antiproliferative activity against human SK-N-DZ cells. Format: functional, cell-based.
Experiment [3] relates to SK-N-AS. As to the kind of experiment: Antiproliferative activity against human SK-N-AS cells assessed as reduction in cell viability incubated for 72 hrs by cell-titer Glo assay. Format: functional, cell-based.
Experiment [4] deals with T1, Proliferating cell nuclear antigen (Homo sapiens, UniProt P12004). As to the kind of experiment: Inhibition of N-terminal 6His-tagged recombinant PCNA (unknown origin) extracted from Escherichia coli BL21 (DE3) by fluorescence based analysis.
Experiment [5] addresses T1, Proliferating cell nuclear antigen. As to the kind of experiment: Binding affinity to N-terminal recombinant 6His-tagged PCNA (unknown origin) extracted from Escherichia coli BL21 (DE3) by fluorescence polarization assay.
In experiment [6] the test system is SK-N-AS. The experiment in a line: Anticancer activity against human SK-N-AS cells. Format: functional, cell-based.
Experiment [7] has as its system SH-SY5Y. As to the kind of experiment: Antiproliferative activity against human SH-SY5Y cells assessed as reduction in cell viability. Format: functional, cell-based.
Experiment [8] deals with HeLa. The experiment in a line: Antiproliferative activity against human HeLa cells assessed as reduction in cell viability incubated for 72 hrs by MTT assay. Type of experiment: functional, cell-based.
The test system of experiment [9] is A549. The experiment in a line: Antiproliferative activity against human A549 cells assessed as reduction in cell viability incubated for 72 hrs by MTT assay. Format: functional, cell-based. Particulars: A549, 72 h.
The subject of experiment [10] is A673. As to the kind of experiment: Antiproliferative activity against human A673 cells assessed as reduction in cell viability incubated for 72 hrs by MTT assay. Type of experiment: functional, cell-based. The note with it: A673, 72 h.
Experiment [11] has as its system HeLa. As to the kind of experiment: Antiproliferative activity against human HeLa cells assessed as reduction in cell growth measured for 48 hrs by MTT assay. Format: functional, cell-based.
The test system of experiment [12] is HCT-116. As to the kind of experiment: Antiproliferative activity against human HCT-116 cells assessed as reduction in cell growth measured for 48 hrs by MTT assay. Type of experiment: functional, cell-based. The note with it: HCT-116, 48 h.
Experiment [13] has as its system Jurkat. The experiment in a line: Antiproliferative activity against human Jurkat cells assessed as reduction in cell growth measured for 48 hrs by MTT assay. Type of experiment: functional, cell-based.
In experiment [14] the test system is MCF7. As to the kind of experiment: Antiproliferative activity against human MCF7 cells assessed as reduction in cell growth measured for 48 hrs by MTT assay. Particulars: MCF7, 48 h. Type of experiment: functional, cell-based.
Experiment [15] relates to HepG2. The experiment in a line: Antiproliferative activity against human HepG2 cells assessed as reduction in cell growth measured for 48 hrs by MTT assay. Format: functional, cell-based. The note with it: HepG2, 48 h.

T1 sequence (P12004 whole entry): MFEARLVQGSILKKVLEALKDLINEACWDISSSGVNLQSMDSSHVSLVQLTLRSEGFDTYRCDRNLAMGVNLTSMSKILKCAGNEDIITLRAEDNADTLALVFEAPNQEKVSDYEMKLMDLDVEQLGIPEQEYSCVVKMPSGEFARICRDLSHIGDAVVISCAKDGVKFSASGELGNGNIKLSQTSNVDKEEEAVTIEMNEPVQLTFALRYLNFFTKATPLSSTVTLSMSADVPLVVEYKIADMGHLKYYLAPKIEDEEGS

In the case of `O=C(CNC(=O)c1cccc2ccccc12)Nc1ccc(Cl)cc1Oc1ccccc1`, the values for the IC50 in experiment [1], in experiment [2] and in experiment [3] were 500 nM, 447 nM and 185 nM, respectively.
For the compound `N[C@H](CNC(=O)NC(=O)CCN1CCOCC1)Cc1cc(I)c(Oc2ccc(O)cc2)c(I)c1`, the IC50 in experiment [4] amounted to 1200 nM. Further, the Ki in experiment [5] was found to be 110 nM.
With `COc1ccc(Oc2ccccc2NC(=O)CNC(=O)c2cccc3ccccc23)cc1`, the IC50 in experiment [1] was 234 nM; in experiment [2] it was 271 nM; in experiment [3] it was 91 nM.
`COc1ccc(S(=O)(=O)N[C@H](CO)Cc2cc(I)c(Oc3ccc(O)cc3)c(I)c2)cc1`: the Ki in experiment [5] came out at 930 nM.
On to `COc1cccc(Oc2ccccc2NC(=O)CNC(=O)c2cccc3ccccc23)c1`, for which the IC50 came out at 236 nM in experiment [1], 288 nM in experiment [2] and 125 nM in experiment [3].
Take `NCc1ccc(CN(CC(N)=O)C(=O)CN(CCO)C(=O)CN[C@H](CO)Cc2cc(I)c(Oc3ccc(O)cc3)c(I)c2)cc1`: the IC50 in experiment [4] turned out to be 1180 nM. The Ki in experiment [5] stood at 114 nM.
Consider `CS(=O)(=O)NC(=O)Cc1cc(I)c(Oc2ccc(O)cc2)c(I)c1`, for which the Ki in [5] turned out to be 870 nM.
As for `O=C(O)CC[C@@H](NC(=O)c1cccc2ccccc12)C(=O)Nc1ccccc1Oc1ccccc1`, the IC50 in [6] is greater than 10000 nM.
In the case of `CCNC(=O)Cc1cc(I)c(Oc2ccc(O)cc2)c(I)c1`, the Ki in experiment [5] stood at 630 nM.
With `Cc1noc(C)c1S(=O)(=O)N[C@H](CO)Cc1cc(I)c(Oc2ccc(O)cc2)c(I)c1`, the Ki in [5] came to 150 nM.
As to `O=C(CNC(=O)c1cccc2ccccc12)Nc1ccc(Oc2ccncc2)cc1`, in experiment [3], the IC50 came out at 1100 nM.
For the compound `Cc1cc(Oc2c(I)cc(C[C@H](N)CO)cc2I)ccc1O`, the Ki in experiment [5] worked out at 173 nM.
Take `C[C@H](NC(=O)c1cccc2ccccc12)C(=O)Nc1ccccc1Oc1ccccc1`: in [7], the IC50 worked out at 4000 nM.
On to `CC(C)[C@@H](NC(=O)c1cccc2ccccc12)C(=O)Nc1ccccc1Oc1ccccc1`, for which the IC50 in [6] was greater than 10000 nM.
On the same count and under the same terms, next, `COc1cccc(Oc2ccccc2NC(=O)[C@H](C)NC(=O)c2cccc3ccccc23)c1`: greater than 10000 nM.
For `NC[C@@H](N)Cc1cc(I)c(Oc2ccc(O)cc2)c(I)c1`, in [5], the Ki was found to be 240 nM.
For `O=C(CNC(=O)c1cncc2ccccc12)Nc1cccc(Oc2ccncc2)c1`, the IC50 in [3] is greater than 30000 nM.
Turning to `CNC(=O)Cc1cc(I)c(Oc2ccc(O)cc2)c(I)c1`, the Ki in experiment [5] amounted to 780 nM.
As for `CNC(=O)CCc1cc(I)c(Oc2ccc(OC)cc2)c(I)c1`, the Ki in experiment [5] was determined as 1630 nM.
As to `O=C(CNC(=O)c1cccc2ccccc12)Nc1cccc(Oc2ccncc2)c1`, the IC50 in experiment [3] amounted to 21600 nM.
`COc1cccc(Oc2ccccc2NC(=O)CNC(=O)CCc2cccc3ccccc23)c1`: in [3], the IC50 was greater than 10000 nM.
Consider `O=C1CN(C(=O)CCc2cc(I)c(Oc3ccc(O)cc3)c(I)c2)CCN1`, for which the Ki in experiment [5] was greater than 4810 nM.
On to `COc1cccc(Oc2ccccc2NC(=O)CNC(=O)c2ccc(-c3ccccc3)cc2)c1`, for which the IC50 in experiment [3] is greater than 10000 nM.
`O=C(CCNC(=O)c1cccc2ccccc12)Nc1ccccc1Oc1ccccc1` displayed an IC50 in [6] greater than 10000 nM.
As for `CC(C)[C@H](NC(=O)c1cccc2ccccc12)C(=O)Nc1ccccc1Oc1ccccc1`, the IC50 in experiment [6] was greater than 10000 nM.
Regarding `O=C(CNC(=O)c1cccc2ccccc12)Nc1ccccc1Cc1ccccc1`, the IC50 in [3] turned out to be 1100 nM.
Take `COc1cccc(Oc2ccccc2NC(=O)CNC(=O)c2c(C)cc(C)cc2C)c1`: the IC50 in experiment [8] stood at 6500 nM; in experiment [9] it was 4700 nM; in [10] it was 5500 nM.
`O=C(CNC(=O)c1cccc2ccccc12)Nc1ccccc1Oc1cccc(O)c1`: the figures for the IC50 in experiment [1], in experiment [2] and in experiment [3] were 485 nM, 539 nM and 192 nM, respectively.
Consider `N[C@H](CNC(=O)NCc1ccccc1)Cc1cc(I)c(Oc2ccc(O)cc2)c(I)c1`, for which, in experiment [5], the Ki is 10 nM.
In the case of `O=S(=O)(N[C@H](CO)Cc1cc(I)c(Oc2ccc(O)cc2)c(I)c1)c1ccccc1`, in experiment [5], the Ki was found to be 570 nM.
As to `O=C1CN(C(=O)Cc2cc(I)c(Oc3ccc(O)cc3)c(I)c2)CCN1`, the Ki in [5] was 870 nM.
In [6], `O=C(Nc1ccccc1Oc1ccccc1)c1cccc2ccccc12` had an IC50 greater than 10000 nM.
Take `NC(=O)CN(Cc1ccc2c(c1)OCO2)C(=O)CN(CCO)C(=O)CN[C@H](CO)Cc1cc(I)c(Oc2ccc(O)cc2)c(I)c1`: in [5], the inhibition constant (Ki) turned out to be 170 nM.
On to `CN(C)C(=O)Cc1cc(I)c(Oc2ccc(O)cc2)c(I)c1`, for which, in experiment [5], the Ki was determined as 720 nM.
`O=C(Cc1cc(I)c(Oc2ccc(O)cc2)c(I)c1)N1CCOCC1`: the Ki in experiment [5] came out at 600 nM.
For `N[C@H](CNC(=O)CO)Cc1cc(I)c(Oc2ccc(O)cc2)c(I)c1`, in experiment [5], the Ki was 130 nM.
`O=C(CNC(=O)c1cncc2ccccc12)Nc1ccc(Oc2ccncc2)cc1`: the IC50 in experiment [3] is greater than 30000 nM.
Still for that read-out and setting: next, `O=C(CNC(=O)c1nccc2ccccc12)Nc1ccccc1Oc1ccccc1`: 35000 nM; `O=C(CNC(=O)c1nccc2ccccc12)Nc1ccc(Oc2ccncc2)cc1`: greater than 30000 nM; `O=C(CNC(=O)c1cncc2ccccc12)Nc1ccccc1Oc1ccncc1`: greater than 30000 nM.
The compound `O=C(O)CC[C@H](NC(=O)c1cccc2ccccc12)C(=O)Nc1ccccc1Oc1ccccc1` displayed an IC50 in experiment [6] greater than 10000 nM.
For `NC(=O)CN(Cc1ccc(CO)cc1)C(=O)CNC(=O)CN[C@H](CO)Cc1cc(I)c(Oc2ccc(O)cc2)c(I)c1`, the IC50 in experiment [4] was 5560 nM.
As for `O=C(CNC(=O)c1cncc2ccccc12)Nc1ccccc1Oc1ccccc1`, the IC50 in experiment [3] was greater than 30000 nM.
Consider `CS(=O)(=O)NC(=O)CCc1cc(I)c(Oc2ccc(O)cc2)c(I)c1`, for which the Ki in experiment [5] amounted to 1920 nM.
`O=C1NC[C@H](Cc2cc(I)c(Oc3ccc(O)cc3)c(I)c2)N1`: the Ki in experiment [5] was 540 nM.
`COc1cc(C(=O)N2CCC(N3CCN(C)CC3)CC2)ccc1Nc1ncc2c(n1)N(C)c1ccccc1C(=O)N2C`: the IC50 in experiment [11] is 13500 nM; in [12] it was 9250 nM; in experiment [13], 5900 nM; in [14], 42800 nM; in experiment [15], 89100 nM.
With `CCCCCCNC(=O)NC[C@@H](N)Cc1cc(I)c(Oc2ccc(O)cc2)c(I)c1`, in [5], the Ki came out at 120 nM.
For the compound `O=C(CNC(=O)c1cccc2ccccc12)Nc1ccccc1Oc1ccccc1`, the IC50 in experiment [1] worked out at 325 nM; in experiment [2] it was 237 nM; in experiment [3], 100 nM.
On to `O=C(CNC(=O)c1nccc2ccccc12)Nc1cccc(Oc2ccncc2)c1`, for which, in experiment [3], the IC50 was found to be 34000 nM.
`NC(=O)CN(Cc1ccc(O)cc1)C(=O)CN(CCO)C(=O)CN[C@H](CO)Cc1cc(I)c(Oc2ccc(O)cc2)c(I)c1`: the Ki in experiment [5] stood at 40 nM.
In the case of `O=C(CNC(=O)c1cccc2ccccc12)Nc1c(Cl)cccc1Oc1ccccc1`, the IC50 in experiment [1], in experiment [2] and in [3] was greater than 10000 nM throughout.
Take `COc1ccc(Oc2c(I)cc(CCC(=O)N3CCCCC3)cc2I)cc1`: the inhibition constant (Ki) in experiment [5] stood at 910 nM.
For `O=C(CNC(=O)c1cccc2ccccc12)Nc1ccccc1Oc1ccc(O)cc1`, the figures for the IC50 in experiment [1], in experiment [2] and in experiment [3] were 490 nM, 467 nM and 156 nM, respectively.
Consider `O=C(CNC(=O)c1cccc2ccccc12)Nc1ccccc1Oc1ccncc1`, for which the IC50 in [3] was greater than 50000 nM.
Still for that read-out and setting: next, `COc1cccc(Oc2ccccc2NC(=O)CNC(=O)Cc2cccc3ccccc23)c1`: greater than 10000 nM.
Consider `N[C@H](CO)Cc1cc(I)c(Oc2ccc(O)c(I)c2)c(I)c1`, for which, in experiment [5], the Ki turned out to be 60 nM.
The compound `NCCCC[C@@H](NC(=O)c1cccc2ccccc12)C(=O)Nc1ccccc1Oc1ccccc1` displayed a 50% inhibitory concentration (IC50) in [6] greater than 10000 nM.
As to `COc1ccc(Oc2c(I)cc(CCC(=O)NS(C)(=O)=O)cc2I)cc1`, in experiment [5], the Ki is greater than 4810 nM.
Consider `O=C(CCc1cc(I)c(Oc2ccc(O)cc2)c(I)c1)N1CCCCC1`, for which, in [5], the Ki is 231 nM.
On to `O=C(CNC(=O)c1nccc2ccccc12)Nc1ccccc1Oc1ccncc1`, for which the IC50 in experiment [3] came to 42000 nM.
On to `O=S(=O)(N[C@H](CO)Cc1cc(I)c(Oc2ccc(O)cc2)c(I)c1)c1ccc(O)cc1`, for which, in [5], the Ki came to 3080 nM.
Turning to `NCCCC[C@H](NC(=O)c1cccc2ccccc12)C(=O)Nc1ccccc1Oc1ccccc1`, in [6], the IC50 is greater than 10000 nM.
